In paper PMC10707221, “A Novel Lipase from Streptomyces exfoliatus DSMZ 41693 for Biotechnological Applications” (International Journal of Molecular Sciences, 2023) one finds Km data, which are given here for 1 molecule.

Each structure is given as a SMILES string.

For the experiment, the system named is T1, SeLipC.
T1 construct: gene lipC; Full gene with native signal peptide (33 aa) expressed in Rhodococcus sp; T104 (pENV19), secreted; purified on phenyl sepharose; The printed nt borders (870 nt) give about 289 codons, not 33 + 259
Description: colorimetric p-nitrophenol release at […] nm, nonlinear hyperbolic fit. It is filed as biochemical, Streptomyces exfoliatus. Conditions: 50 mM Tris/HCl pH 8.0, 37 °C; pNPP 10-800 µM; standard assay with isopropanol, gum arabic and sodium deoxycholate.

`CCCCCCCCCCCCCCCC(=O)Oc1ccc([N+](=O)[O-])cc1` [pNPP, p-nitrophenyl palmitate]: the Km was determined as 49.6 ± 11.2 µM.

What is called Km is the concentration of substrate that gives half-maximal velocity.
